{"source": "patent US11155544B2", "about": "“Heterocycle comprising tyrosine kinase inhibitors” (Principia Biopharma Inc., priority 2015, dated 2021)", "key": {"CD69 expression": {"tested_on": "CD69 expression", "experiment": "Blockade of CD69 Expression in Human Whole Blood Samples", "type": "cell-based", "details": "30 minutes pre-incubation, activation with anti-IgM, cells gated on CD20, CD69 by FACS", "protocol": "Activation of the B cell receptor leads to increased BTK activity, calcium mobilization and B cell activation (see Honigberg L. A., et. al., Proc Natl Acad Sci USA. 107:13075-80. 2010). […] CD69 was expressed following B cell activation as a measure of BTK activity in whole blood. Aliquots of whole blood were pre-incubated with serial dilutions of test compound for 30 minutes followed by activation with anti-IgM (goat Fab′ 2, 50 μg/ml). Samples were incubated overnight at 37° C. and then stained with PE labeled anti-CD20 and APC labeled anti-CD69 (BD Pharmingen) for 30 minutes according to the manufacturer's directions. Whole blood was then lysed and cells gated on CD20 expression were quantified for CD 69 expression by FACS. The percent inhibition was calculated based on a DMSO control for no inhibition and plotted as a function of test compound concentration from which an IC50 value was calculated."}, "human recombinant BTK": {"target": "human recombinant BTK (Homo sapiens (Human), UniProt Q06187)", "sequence (Q06187 whole entry)": "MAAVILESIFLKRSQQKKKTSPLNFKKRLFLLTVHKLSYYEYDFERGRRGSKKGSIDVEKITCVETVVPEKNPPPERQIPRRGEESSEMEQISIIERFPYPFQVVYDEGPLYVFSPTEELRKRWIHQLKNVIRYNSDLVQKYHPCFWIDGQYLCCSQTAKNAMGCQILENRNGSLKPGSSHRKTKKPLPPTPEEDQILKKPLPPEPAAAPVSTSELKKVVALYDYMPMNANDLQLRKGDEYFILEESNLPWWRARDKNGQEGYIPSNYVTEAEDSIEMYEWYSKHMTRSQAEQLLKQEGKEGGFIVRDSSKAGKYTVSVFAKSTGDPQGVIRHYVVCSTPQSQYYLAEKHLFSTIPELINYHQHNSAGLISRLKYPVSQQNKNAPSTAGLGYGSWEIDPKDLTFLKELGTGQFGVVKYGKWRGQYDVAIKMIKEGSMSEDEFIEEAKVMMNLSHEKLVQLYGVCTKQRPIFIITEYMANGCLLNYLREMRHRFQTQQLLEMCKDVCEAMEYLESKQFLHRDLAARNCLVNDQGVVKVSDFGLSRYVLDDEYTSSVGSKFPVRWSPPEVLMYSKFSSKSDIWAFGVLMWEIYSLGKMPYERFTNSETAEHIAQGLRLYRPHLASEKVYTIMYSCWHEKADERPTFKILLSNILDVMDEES", "experiment": "BTK Enzymatic Activity Assay (Caliper-based kinase assay)", "type": "biochemical", "details": "human recombinant BTK (0.5 nM), ATP (16 μM), peptide substrate (1 μM), room temperature for 3 h", "protocol": "A Caliper-based kinase assay (Caliper Life Sciences, Hopkinton, Mass.) was used to measure inhibition of BTK kinase activity of a compound of the present disclosure. Serial dilutions of test compounds were incubated with human recombinant BTK (0.5 nM), ATP (16 μM) and a phosphoacceptor peptide substrate FAM-GEEPLYWSFPAKKK-NH2 (1 μM) at room temperature for 3 h. The reaction was then terminated with EDTA, final concentration 20 mM and the phosphorylated reaction product was quantified on a Caliper Desktop Profiler (Caliper LabChip 3000). Percent inhibition was calculated for each compound dilution and the concentration that produced 50% inhibition was calculated. This value is presented as the IC50."}}, "note": "pIC50: −log10 of the molar value."}
{"compound": "CN1CCN(C(C)(C)C=C(C#N)C(=O)N2CCC[C@H]2Cn2nc(-c3ccc(Oc4ccccc4)cc3F)c3c(N)nccc32)CC1", "note": "[Compound 12, (S)-2-(2-((4-amino-3-(2-fluoro-4-phenoxyphenyl)-1H-pyrazolo[4,3-c]pyridin-1-yl)methyl)pyrrolidine-1-carbonyl)-4-methyl-4-(4-methylpiperazin-1-yl)pent-2-enenitrile]", "values": [{"measurement": "pIC50", "setting": "CD69 expression", "value": 6.06}, {"measurement": "pIC50", "setting": "human recombinant BTK", "value": 7.85}]}
{"compound": "CC(C)(C=C(C#N)C(=O)N1CCC[C@H]1Cn1nc(-c2ccc(Oc3ccccc3)cc2F)c2c(N)nccc21)N1CCN(C2COC2)CC1", "note": "[Compound 13, (S)-2-(2-((4-amino-3-(2-fluoro-4-phenoxyphenyl)-1H-pyrazolo[4,3-c]pyridin-1-yl)methyl)pyrrolidine-1-carbonyl)-4-methyl-4-(4-(oxetan-3-yl)piperazin-1-yl)pent-2-enenitrile]", "values": [{"measurement": "pIC50", "setting": "CD69 expression", "value": 5.89}, {"measurement": "pIC50", "setting": "human recombinant BTK", "value": 8.13}]}
{"compound": "CC(C)(C)C=C(C#N)C(=O)N1CCC[C@H]1Cc1nc(-c2ccc(Oc3ccccc3)cc2F)c2c(N)nccn12", "note": "[Compound 16, (S)-2-(2-((8-amino-1-(2-fluoro-4-phenoxyphenyl)imidazo[1,5-a]pyrazin-3-yl)methyl)pyrrolidine-1-carbonyl)-4,4-dimethylpent-2-enenitrile]", "values": [{"measurement": "pIC50", "setting": "CD69 expression", "value": 6.03}, {"measurement": "pIC50", "setting": "human recombinant BTK", "value": 8.77}]}
{"compound": "CC(C)(/C=C(\\C#N)C(=O)N1CCC[C@H]1Cc1nc(-c2ccc(Oc3ccccc3)cc2F)c2c(N)nccn12)N1CCOCC1", "note": "[Compound 17, (S)-2-(2-((8-amino-1-(2-fluoro-4-phenoxyphenyl)imidazo[1,5-a]pyrazin-3-yl)methyl)pyrrolidine-1-carbonyl)-4-methyl-4-morpholinopent-2-enenitrile]", "values": [{"measurement": "pIC50", "setting": "CD69 expression", "value": 6.78}, {"measurement": "pIC50", "setting": "human recombinant BTK", "value": 8.54}]}
{"compound": "CN(C1COC1)C(C)(C)C=C(C#N)C(=O)N1CCC[C@H]1Cc1nc(-c2ccc(Oc3ccccc3)cc2F)c2c(N)nccn12", "note": "[Compound 18, (S)-2-(2-((8-amino-1-(2-fluoro-4-phenoxyphenyl)imidazo[1,5-a]pyrazin-3-yl)methyl)pyrrolidine-1-carbonyl)-4-methyl-4-(methyl(oxetan-3-yl)amino)pent-2-enenitrile]", "values": [{"measurement": "pIC50", "setting": "CD69 expression", "value": 6.89}, {"measurement": "pIC50", "setting": "human recombinant BTK", "value": 8.37}]}
{"compound": "CC(C)(C=C(C#N)C(=O)N1CCC[C@H]1Cc1nc(-c2ccc(Oc3ccccc3)cc2F)c2c(N)nccn12)N1CCN(C2COC2)CC1", "note": "[Compound 19, (S)-2-(2-((8-amino-1-(2-fluoro-4-phenoxyphenyl)imidazo[1,5-a]pyrazin-3-yl)methyl)pyrrolidine-1-carbonyl)-4-methyl-4-(4-(oxetan-3-yl)piperazin-1-yl)pent-2-enenitrile]", "values": [{"measurement": "pIC50", "setting": "CD69 expression", "value": 6.75}, {"measurement": "pIC50", "setting": "human recombinant BTK", "value": 7.63}]}
{"compound": "CC(C)(C=C(C#N)C(=O)N1CCC[C@H]1Cn1nc(-c2ccc(Oc3ccccc3)cc2F)c2c(N)nccc21)N1CCOCC1", "note": "[Compound 22, (S)-2-(2-((4-amino-3-(2-fluoro-4-phenoxyphenyl)-1H-pyrazolo[4,3-c]pyridin-1-yl)methyl)pyrrolidine-1-carbonyl)-4-methyl-4-morpholinopent-2-enenitrile]", "values": [{"measurement": "pIC50", "setting": "CD69 expression", "value": 6.29}, {"measurement": "pIC50", "setting": "human recombinant BTK", "value": 8.60}]}
{"compound": "CC(C)(C=C(C#N)C(=O)N1CCC[C@@H](n2nc(-c3ccc(Oc4ccccc4)cc3F)c3c(N)nccc32)C1)C1CCN(C2COC2)CC1", "note": "[Compound 23, (R)-2-(3-(4-amino-3-(2-fluoro-4-phenoxyphenyl)-1H-pyrazolo[4,3-c]pyridin-1-yl)piperidine-1-carbonyl)-4-methyl-4-(1-(oxetan-3-yl)piperidin-4-yl)pent-2-enenitrile]", "values": [{"measurement": "pIC50", "setting": "CD69 expression", "value": 6.27}, {"measurement": "pIC50", "setting": "human recombinant BTK", "value": 8.80}]}
{"compound": "CC(C)(C=C(C#N)C(=O)N1CCC[C@@H](n2nc(-c3ccc(Oc4ccccc4)cc3F)c3c(N)nccc32)C1)N1CCNC(=O)C1", "note": "[Compound 24, (R)-2-(3-(4-amino-3-(2-fluoro-4-phenoxyphenyl)-1H-pyrazolo[4,3-c]pyridin-1-yl)piperidine-1-carbonyl)-4-methyl-4-(3-oxopiperazin-1-yl)pent-2-enenitrile]", "values": [{"measurement": "pIC50", "setting": "CD69 expression", "value": 6.24}, {"measurement": "pIC50", "setting": "human recombinant BTK", "value": 8.77}]}
{"compound": "CC(C)(C=C(C#N)C(=O)N1CCC[C@@H](n2nc(-c3ccc(Oc4ccccc4)c(F)c3)c3c(N)nccc32)C1)N1CCN(C2COC2)CC1", "note": "[Compound 26, (R)-2-(3-(4-amino-3-(3-fluoro-4-phenoxyphenyl)-1H-pyrazolo[4,3-c]pyridin-1-yl)piperidine-1-carbonyl)-4-methyl-4-(4-(oxetan-3-yl)piperazin-1-yl)pent-2-enenitrile]", "values": [{"measurement": "pIC50", "setting": "CD69 expression", "value": 6.44}, {"measurement": "pIC50", "setting": "human recombinant BTK", "value": 8.52}]}
{"compound": "(R)-2-(3-(4-amino-3-(2-methyl-4-phenoxyphenyl)-1H-pyrazolo[4,3-c]pyridin-1-yl)piperidine-1-carbonyl)-4-methyl-4-(4-(oxetan-3-yl)piperazin-1-yl)pent-2-enenitrile [Compound 25]", "values": [{"measurement": "pIC50", "setting": "CD69 expression", "value": 6.37}, {"measurement": "pIC50", "setting": "human recombinant BTK", "value": 8.36}]}
